ChEMBL document CHEMBL4616582, “Green recipes to quinoline: A review” (Eur J Med Chem, 2019)
Converted amounts (≈) assume the structure as drawn.

How the values were obtained:
Assay type in all cases: functional, organism-based
Leishmania donovani [1] = assay: Antileishmanial activity against Leishmania donovani promastigotes
Leishmania donovani [2] = assay: Antileishmanial activity against Leishmania donovani amastigotes
Plasmodium falciparum = assay: Antimalarial activity against chloroquine and quinine sensitive Plasmodium falciparum

Row | Structure (SMILES) | IC50 (Leishmania donovani [1]) [µg/mL] | IC50 (Leishmania donovani [2]) [µg/mL] | IC50 (Plasmodium falciparum) [µg/mL]
1 | Nc1ccc(Cl)cc1C(=O)c1ccccc1 | 1.34 to 3.26 (≈ 5.78 to 14.1 µM) | 1.34 to 3.26 (≈ 5.78 to 14.1 µM) | 
2 | CSC(=S)/C=C(\O)c1ccc(C)cc1 | 1.34 to 3.26 (≈ 5.97 to 14.5 µM) | 1.34 to 3.26 (≈ 5.97 to 14.5 µM) | 
3 | CSC(=S)/C=C(\O)c1cccc(C)c1 | 1.34 to 3.26 (≈ 5.97 to 14.5 µM) | 1.34 to 3.26 (≈ 5.97 to 14.5 µM) | 
4 | CCCCCCCCCCCCCCCCOP(=O)([O-])OCC[N+](C)(C)C [MILTEFOSINE] | 4.54 (≈ 11.1 µM) | 8.2 (≈ 20.1 µM) | 
5 | CSC(=S)/C=C(\O)c1ccco1 | 1.34 to 3.26 (≈ 6.69 to 16.3 µM) | 1.34 to 3.26 (≈ 6.69 to 16.3 µM) | 
6 | CSC(=S)/C=C(\O)c1ccc(C(F)(F)F)cc1 | 1.34 to 3.26 (≈ 4.81 to 11.7 µM) | 1.34 to 3.26 (≈ 4.81 to 11.7 µM) | 
7 | COc1ccc(/C(O)=C/C(=S)SC)cc1 | 1.34 to 3.26 (≈ 5.58 to 13.6 µM) | 1.34 to 3.26 (≈ 5.58 to 13.6 µM) | 
8 | CSC(=S)/C=C(\O)c1ccccc1 | 1.34 to 3.26 (≈ 6.37 to 15.5 µM) | 1.34 to 3.26 (≈ 6.37 to 15.5 µM) | 
9 | CSC(=S)/C=C(\O)c1ccccc1Cl | 1.34 to 3.26 (≈ 5.47 to 13.3 µM) | 1.34 to 3.26 (≈ 5.47 to 13.3 µM) | 
10 | CSC(=S)/C=C(\O)c1cccs1 | 1.34 to 3.26 (≈ 6.19 to 15.1 µM) | 1.34 to 3.26 (≈ 6.19 to 15.1 µM) | 
11 | Nc1ccccc1C(=O)c1ccccc1 | 1.34 to 3.26 (≈ 6.79 to 16.5 µM) | 1.34 to 3.26 (≈ 6.79 to 16.5 µM) | 
12 | Cc1nn(-c2ccccc2)c(Oc2cccc(C(F)(F)F)c2)c1C1C(C#N)=C(N)N(Nc2ccccc2)C2=C1C(=O)CC(C)(C)C2 (stereo not drawn) |  |  | 0.042 to 0.09 (≈ 0.0672 to 0.144 µM)
